# Measured values reported in ChEMBL document CHEMBL4431321, “Profiling of Flavonol Derivatives for the Development of Antitrypanosomatidic Drugs” (J Med Chem, 2016).
# Activity calls are given as the source filed them. The calls are words filed in the database; no cut-off is given here.
# Legend:
# [1] = Cytotoxicity against human THP1 cells after 72 hrs by MTT assay; type: cell-based; conditions: THP-1 cells; for MNTC at 72 h: read-out: NOAEL
# [2] = biological target: T1, Dihydrofolate reductase (Homo sapiens) (UniProt P00374); assay: Inhibition of human DHFR at 50 uM using folic aid as substrate by spectrophotometric analysis
# T1 sequence (whole entry): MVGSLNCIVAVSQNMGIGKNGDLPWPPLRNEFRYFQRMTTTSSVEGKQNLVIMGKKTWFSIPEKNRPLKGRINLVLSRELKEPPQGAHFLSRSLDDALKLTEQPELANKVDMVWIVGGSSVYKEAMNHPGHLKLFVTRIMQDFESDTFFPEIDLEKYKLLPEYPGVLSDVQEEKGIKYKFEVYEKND
# Trypanosoma brucei [3] = assay: Inhibition of Trypanosoma brucei DHFR at 50 uM using folic aid as substrate by spectrophotometric analysis
# Cytochrome P450 1A2 [4] = biological target: T2, Cytochrome P450 1A2 (Homo sapiens, UniProt P05177); assay: (§1) Inhibition of human microsomal CYP1A2 expressed in baculovirus infected BTI-TN-5B1-4 cells at 10 uM incubated for 30 mins by luciferase assay; type: ADME; conditions: bti-tn-5b1-4, 0.5 h, 10 µM
# T2 sequence (P05177 whole entry): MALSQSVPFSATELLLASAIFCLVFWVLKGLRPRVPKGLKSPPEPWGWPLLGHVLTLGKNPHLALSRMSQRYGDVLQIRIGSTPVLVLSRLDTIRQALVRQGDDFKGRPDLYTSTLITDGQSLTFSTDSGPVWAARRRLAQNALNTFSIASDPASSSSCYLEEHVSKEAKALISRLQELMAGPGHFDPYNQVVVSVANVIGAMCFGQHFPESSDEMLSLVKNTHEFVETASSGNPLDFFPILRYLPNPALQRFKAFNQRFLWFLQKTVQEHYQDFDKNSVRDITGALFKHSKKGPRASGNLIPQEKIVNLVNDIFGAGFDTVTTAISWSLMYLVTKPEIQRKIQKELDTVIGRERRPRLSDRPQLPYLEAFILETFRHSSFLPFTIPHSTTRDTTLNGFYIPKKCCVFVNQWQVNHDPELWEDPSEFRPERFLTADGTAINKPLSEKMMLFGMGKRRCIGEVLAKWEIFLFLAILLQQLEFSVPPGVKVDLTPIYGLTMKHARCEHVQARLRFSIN
# Trypanosoma brucei [5] = assay: Inhibition of Trypanosoma brucei PTR1 at 50 uM using H2B as substrate incubated for 10 mins followed by addition of NADPH measured for 10 to 50 mins
# in vitro = conditions: human, THP-1 cells
# Description: Selectivity index, ratio of CC50 for human THP1 cells to EC50 for Trypanosoma brucei brucei Lister 427 bloodstream forms
# [6] = tested on: Trypanosoma brucei brucei; assay: Antitrypanosomal activity against Trypanosoma brucei brucei Lister 427 bloodstream forms at 10 uM after 72 hrs by resazurin-based assay; type: functional, organism-based
# 786-0 = assay: Mitochondrial toxicity in human 786-O cells incubated for 6 hrs by mitotracker red staining based-uptake method; type: cell-based; conditions: 786-0, 6 h
# [7] = tested on: Trypanosoma brucei brucei; assay: Antitrypanosomal activity against Trypanosoma brucei brucei Lister 427 bloodstream forms assessed as synergy coefficient at 1.25 to 5 uM after 72 hrs in presence of MTX by resazurin-based assay; type: functional
# WI-38 = assay: Cytotoxicity against human WI38 cells at 100 uM after 48 hrs by cell titer glo assay; type: cell-based; conditions: wi-38, 48 h
# [8] = tested on: Trypanosoma brucei brucei; assay: Antitrypanosomal activity against Trypanosoma brucei brucei Lister 427 bloodstream forms after 72 hrs by resazurin-based assay; type: functional, organism-based; conditions: Lister 427, 72 h
# Leishmania mexicana [9] = assay: Inhibition of Leishmania mexicana DHFR at 50 uM using folic aid as substrate by spectrophotometric analysis
# A549 = assay: Cytotoxicity against human A549 cells at 100 uM after 48 hrs by cell titer glo assay; type: cell-based; conditions: a549, 48 h
# [10] = tested on: Trypanosoma brucei brucei; assay: Antitrypanosomal activity against Trypanosoma brucei brucei Lister 427 bloodstream forms assessed as synergy coefficient at 2.5 to 5 uM after 72 hrs in presence of MTX by resazurin-based assay; type: functional
# [11] = biological target: Thymidylate synthase (Homo sapiens) (UniProt P04818); assay: Inhibition of human thymidylate synthase at 50 uM using folic aid as substrate by spectrophotometric analysis
# [12] = tested on: Trypanosoma brucei brucei; assay: Antitrypanosomal activity against Trypanosoma brucei brucei Lister 427 bloodstream forms assessed as maximum synergy coefficient at 1.25 after 72 hrs in presence of MTX by resazurin-based assay; type: functional
# CYP1A2 = CYP1A2 (Homo sapiens, UniProt P05177); assay: as §1; type: ADME
# THP-1 = assay: Cytotoxicity against human THP1 cells at 12.5 to 50 uM after in presence of MTX by MTT assay; type: cell-based; conditions: thp-1, 50 µM
# Trypanosoma cruzi = assay: Antitrypanosomal activity against Trypanosoma cruzi Y trypomastigotes infected in human HG39 cells after 48 hrs by RT-PCR assay
# [13] = biological target: Voltage-gated inwardly rectifying potassium channel KCNH2 (Homo sapiens, UniProt Q12809); assay: Inhibition of human ERG in membranes incubated for 2 hrs by fluorescence polarization assay
# Cytochrome P450 2C9 = Cytochrome P450 2C9 (Homo sapiens, UniProt P11712); assay: Inhibition of human microsomal CYP2C9 expressed in baculovirus infected BTI-TN-5B1-4 cells incubated for 30 mins by luciferase assay; type: ADME
# [14] = Cytotoxicity against human THP1 cells compound treated through encapsulation in PLGA nanoparticles after 72 hrs by MTT assay; type: cell-based; conditions: THP-1 cells, read-out: NOAEL
# [15] = Drug uptake in BALB/c mouse plasma at 1 mg/kg, po administered as single dose through encapsulation in PLGA nanoparticles by HPLC analysis; type: ADME, organism-based; conditions: in vivo
# Dihydrofolate reductase = Dihydrofolate reductase (Homo sapiens, UniProt P00374); assay: Inhibition of human DHFR using folic aid as substrate by spectrophotometric analysis
# [16] = Solubility of compound in PBS incubated for 18 hrs by UV-visible spectroscopic analysis; type: physicochemical; conditions: buffer
# [17] = Drug uptake in BALB/c mouse plasma at 1 mg/kg, iv administered as single dose through encapsulation in PLGA nanoparticles by HPLC analysis; type: ADME, organism-based; conditions: in vivo
# Leishmania mexicana [18] = assay: Inhibition of Leishmania mexicana PTR1 at 50 uM using H2B as substrate incubated for 10 mins followed by addition of NADPH measured for 10 to 50 mins
# Cytochrome P450 3A4 = Cytochrome P450 3A4 (Homo sapiens, UniProt P08684); assay: Inhibition of human microsomal CYP3A4 expressed in baculovirus infected BTI-TN-5B1-4 cells incubated for 30 mins by luciferase assay; type: ADME
# [19] = Drug uptake in NMRI mouse plasma at 4 mg/kg, po administered with cyclodextrins by HPLC analysis; type: ADME, organism-based; conditions: in vivo
# [20] = Half life BALB/c mouse blood at 1 mg/kg, iv administered as single dose by HPLC analysis; type: ADME, organism-based
# [21] = Drug uptake in BALB/c mouse blood at 1 mg/kg, iv administered as single dose after 30 mins by HPLC analysis; type: ADME, organism-based; conditions: in vivo, 0.5 h
# Cytochrome P450 1A2 [22] = biological target: T2, Cytochrome P450 1A2; assay: Inhibition of human microsomal CYP1A2 expressed in baculovirus infected BTI-TN-5B1-4 cells incubated for 30 mins by luciferase assay; type: ADME
# Cytochrome P450 2D6 = Cytochrome P450 2D6 (Homo sapiens, UniProt P10635); assay: Inhibition of human microsomal CYP2D6 expressed in baculovirus infected BTI-TN-5B1-4 cells incubated for 30 mins by luciferase assay; type: ADME
# [23] = Cytotoxicity against human THP1 cells compound treated with cyclodextrins after 72 hrs by MTT assay; type: cell-based; conditions: THP-1 cells, read-out: NOAEL
# [24] = tested on: Trypanosoma brucei brucei; assay: Antitrypanosomal activity against Trypanosoma brucei brucei Lister 427 bloodstream forms compound treated with cyclodextrins after 72 hrs by resazurin-based assay; type: functional, organism-based; conditions: Lister 427, 72 h
# [25] = tested on: Trypanosoma brucei brucei; assay: Antitrypanosomal activity against Trypanosoma brucei brucei Lister 427 bloodstream forms compound treated through encapsulation in PLGA nanoparticles after 72 hrs by resazurin-based assay; type: functional, organism-based; conditions: Lister 427, 72 h
# Cytochrome P450 2C19 = Cytochrome P450 2C19 (Homo sapiens, UniProt P33261); assay: Inhibition of human microsomal CYP2C19 expressed in baculovirus infected BTI-TN-5B1-4 cells incubated for 30 mins by luciferase assay; type: ADME
# [26] = Inhibition of Trypanosoma brucei PTR1 using H2B as substrate incubated for 10 mins followed by addition of NADPH measured for 10 to 50 mins
# Leishmania infantum [27] = assay: Antiparasitic activity against Leishmania infantum MOM/MA67ITMAP263 amastigotes infected in human THP1 cells at 10 uM after 72 hrs by steady-glo luminescence assay; type: functional
# [28] = biological target: Aurora kinase B (Homo sapiens) (UniProt Q96GD4); assay: Inhibition of recombinant full-length human aurora B kinase expressed in baculovirus system using MBP as substrate at 10 uM incubated for 45 mins by ADP-glo kinase assay
# Leishmania infantum [29] = assay: Antiparasitic activity against Leishmania infantum MOM/MA67ITMAP263 amastigotes infected in human THP1 cell after 72 hrs by steady-glo luminescence assay; type: functional, organism-based; conditions: MOM/MA67ITMAP263, THP-1, 72 h
# Chain of Thymidylate synthase (Homo sapiens) (P04818 2-313 limits assumed): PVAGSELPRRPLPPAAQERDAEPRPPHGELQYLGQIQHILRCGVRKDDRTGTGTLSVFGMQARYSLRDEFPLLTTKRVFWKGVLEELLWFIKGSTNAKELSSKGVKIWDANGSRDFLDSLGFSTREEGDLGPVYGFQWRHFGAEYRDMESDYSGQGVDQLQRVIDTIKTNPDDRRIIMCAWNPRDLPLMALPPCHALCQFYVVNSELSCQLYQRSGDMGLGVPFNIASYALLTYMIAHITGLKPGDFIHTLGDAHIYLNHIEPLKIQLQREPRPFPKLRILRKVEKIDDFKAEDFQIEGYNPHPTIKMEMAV
# Chain of Cytochrome P450 3A4 (P08684 whole entry): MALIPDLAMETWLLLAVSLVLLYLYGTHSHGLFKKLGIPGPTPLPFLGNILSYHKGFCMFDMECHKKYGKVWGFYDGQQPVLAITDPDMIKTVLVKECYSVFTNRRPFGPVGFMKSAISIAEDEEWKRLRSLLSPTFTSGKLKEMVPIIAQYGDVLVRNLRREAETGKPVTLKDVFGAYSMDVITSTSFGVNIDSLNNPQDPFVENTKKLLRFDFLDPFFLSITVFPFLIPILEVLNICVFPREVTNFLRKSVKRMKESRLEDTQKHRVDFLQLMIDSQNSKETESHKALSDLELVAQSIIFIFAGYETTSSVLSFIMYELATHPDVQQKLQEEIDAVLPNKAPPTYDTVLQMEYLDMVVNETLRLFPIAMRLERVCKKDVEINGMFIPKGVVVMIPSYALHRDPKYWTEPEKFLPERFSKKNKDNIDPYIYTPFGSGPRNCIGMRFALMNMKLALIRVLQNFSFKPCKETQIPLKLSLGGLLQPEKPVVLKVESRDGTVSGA
# Chain of Cytochrome P450 2C9 (P11712 whole entry): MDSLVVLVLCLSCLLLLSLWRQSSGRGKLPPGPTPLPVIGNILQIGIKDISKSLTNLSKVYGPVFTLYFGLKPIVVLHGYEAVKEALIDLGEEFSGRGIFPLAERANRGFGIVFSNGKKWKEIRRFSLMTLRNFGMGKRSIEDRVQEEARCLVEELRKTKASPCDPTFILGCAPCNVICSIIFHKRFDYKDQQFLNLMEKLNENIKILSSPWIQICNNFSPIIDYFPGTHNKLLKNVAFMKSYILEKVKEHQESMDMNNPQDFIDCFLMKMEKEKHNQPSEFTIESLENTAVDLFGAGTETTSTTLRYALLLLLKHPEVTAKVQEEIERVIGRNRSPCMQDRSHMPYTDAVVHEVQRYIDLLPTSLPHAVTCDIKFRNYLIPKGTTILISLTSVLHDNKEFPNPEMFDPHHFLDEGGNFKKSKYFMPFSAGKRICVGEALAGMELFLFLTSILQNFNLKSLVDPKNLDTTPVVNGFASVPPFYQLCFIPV
# Chain of Voltage-gated inwardly rectifying potassium channel KCNH2 (Q12809 whole entry): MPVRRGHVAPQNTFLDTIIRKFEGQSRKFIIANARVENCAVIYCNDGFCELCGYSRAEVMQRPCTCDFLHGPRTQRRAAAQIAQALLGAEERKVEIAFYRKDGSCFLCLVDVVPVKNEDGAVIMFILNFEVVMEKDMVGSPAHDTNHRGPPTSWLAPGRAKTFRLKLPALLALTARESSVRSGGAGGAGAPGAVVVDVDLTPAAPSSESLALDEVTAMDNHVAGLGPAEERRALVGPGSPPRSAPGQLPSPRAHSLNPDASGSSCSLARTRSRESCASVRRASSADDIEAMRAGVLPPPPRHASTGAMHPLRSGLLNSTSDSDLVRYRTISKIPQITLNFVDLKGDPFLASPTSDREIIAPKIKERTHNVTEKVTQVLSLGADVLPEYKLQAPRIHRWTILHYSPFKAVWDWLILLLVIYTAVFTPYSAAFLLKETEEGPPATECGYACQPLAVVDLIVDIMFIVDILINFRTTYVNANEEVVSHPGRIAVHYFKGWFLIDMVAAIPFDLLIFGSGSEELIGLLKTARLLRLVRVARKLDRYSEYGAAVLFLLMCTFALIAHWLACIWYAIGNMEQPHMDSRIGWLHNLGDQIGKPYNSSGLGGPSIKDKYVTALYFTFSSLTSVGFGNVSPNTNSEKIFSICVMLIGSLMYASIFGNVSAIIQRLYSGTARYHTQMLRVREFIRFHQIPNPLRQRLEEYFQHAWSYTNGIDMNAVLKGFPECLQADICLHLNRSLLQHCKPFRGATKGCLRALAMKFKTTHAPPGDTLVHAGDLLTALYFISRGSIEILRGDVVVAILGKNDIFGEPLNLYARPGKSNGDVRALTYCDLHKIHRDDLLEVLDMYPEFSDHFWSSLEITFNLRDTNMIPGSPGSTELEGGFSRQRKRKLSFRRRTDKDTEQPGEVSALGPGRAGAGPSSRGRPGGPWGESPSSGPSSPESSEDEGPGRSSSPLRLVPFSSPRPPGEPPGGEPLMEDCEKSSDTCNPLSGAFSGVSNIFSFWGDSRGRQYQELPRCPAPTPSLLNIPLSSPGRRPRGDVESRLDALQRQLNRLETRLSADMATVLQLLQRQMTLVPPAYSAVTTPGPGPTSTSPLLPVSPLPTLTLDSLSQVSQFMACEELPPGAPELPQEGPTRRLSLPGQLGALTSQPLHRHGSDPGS
# Chain of Aurora kinase B (Homo sapiens) (Q96GD4 whole entry): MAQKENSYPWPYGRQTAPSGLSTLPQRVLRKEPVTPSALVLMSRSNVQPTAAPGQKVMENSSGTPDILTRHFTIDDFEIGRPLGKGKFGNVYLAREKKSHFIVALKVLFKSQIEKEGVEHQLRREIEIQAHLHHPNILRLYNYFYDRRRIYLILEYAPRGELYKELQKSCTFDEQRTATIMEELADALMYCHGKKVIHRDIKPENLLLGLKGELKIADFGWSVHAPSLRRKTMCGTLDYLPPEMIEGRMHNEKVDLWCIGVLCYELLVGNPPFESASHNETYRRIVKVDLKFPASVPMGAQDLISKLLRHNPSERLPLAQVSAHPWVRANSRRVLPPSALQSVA
# Chain of Cytochrome P450 2D6 (P10635 whole entry): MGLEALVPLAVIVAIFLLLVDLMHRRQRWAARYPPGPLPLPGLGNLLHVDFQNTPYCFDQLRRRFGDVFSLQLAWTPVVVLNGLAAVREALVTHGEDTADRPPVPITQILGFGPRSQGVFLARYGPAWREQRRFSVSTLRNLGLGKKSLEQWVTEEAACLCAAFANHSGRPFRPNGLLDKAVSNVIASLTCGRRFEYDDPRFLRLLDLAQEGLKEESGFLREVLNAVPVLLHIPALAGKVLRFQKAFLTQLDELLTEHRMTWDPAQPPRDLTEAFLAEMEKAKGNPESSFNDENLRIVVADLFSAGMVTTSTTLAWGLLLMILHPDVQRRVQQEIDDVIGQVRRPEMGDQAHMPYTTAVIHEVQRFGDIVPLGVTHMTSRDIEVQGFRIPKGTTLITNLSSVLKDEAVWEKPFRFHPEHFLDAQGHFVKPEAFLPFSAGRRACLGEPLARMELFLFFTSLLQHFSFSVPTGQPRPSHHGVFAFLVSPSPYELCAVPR
# Chain of Cytochrome P450 2C19 (P33261 whole entry): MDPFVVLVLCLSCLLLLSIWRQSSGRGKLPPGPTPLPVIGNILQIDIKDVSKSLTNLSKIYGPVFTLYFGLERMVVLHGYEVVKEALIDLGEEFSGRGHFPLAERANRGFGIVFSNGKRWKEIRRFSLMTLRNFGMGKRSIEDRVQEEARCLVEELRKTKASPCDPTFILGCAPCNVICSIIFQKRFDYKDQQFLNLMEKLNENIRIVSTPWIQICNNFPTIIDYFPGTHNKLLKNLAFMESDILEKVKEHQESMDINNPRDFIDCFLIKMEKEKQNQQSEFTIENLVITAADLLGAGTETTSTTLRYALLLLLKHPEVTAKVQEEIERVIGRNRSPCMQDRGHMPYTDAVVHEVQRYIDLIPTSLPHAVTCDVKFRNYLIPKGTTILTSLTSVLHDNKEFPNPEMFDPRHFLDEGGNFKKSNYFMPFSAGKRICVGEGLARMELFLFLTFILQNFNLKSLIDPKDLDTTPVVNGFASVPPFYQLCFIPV
Compound,MNTC at 72 h [1] [µM],inhibition [2] [%],inhibition (Trypanosoma brucei [3]) [%],inhibition (INH) (Cytochrome P450 1A2 [4]),inhibition (Trypanosoma brucei [5]) [%],selectivity ratio (in vitro),Activity [6],Activity (786-0),CI [7],Activity (WI-38),EC50 [8] [µM],inhibition (Leishmania mexicana [9]) [%],Activity (A549),CI [10],inhibition [11],also measured
O=c1c(O)c(-c2ccc(O)cc2)oc2cc(O)ccc12 [RESOKAEMPFEROL],20,< 30,< 25,Not Active,33,4,Active,Non-Toxic,>1.5,Non-Toxic,4.29,< 25,Non-Toxic,>1.5,inactive,
COc1ccc(-c2oc3ccc(OC)cc3c(=O)c2O)cc1,20,,,,,1,Active,Non-Toxic,,Non-Toxic,,,Non-Toxic,>1.5,,"CI [12]: 3.1; inhibition at 0.5 h, 10 µM (CYP1A2): 72%; Activity (THP-1): Non-Toxic"
CC1CS(=O)(=O)CCN1/N=C/c1ccc([N+](=O)[O-])o1 (configuration not stated) [NIFURTIMOX],,,,,,,,,,,,,,,,IC50 (Trypanosoma cruzi): 2.2 µM
O=c1c(O)c(-c2cccc(O)c2)oc2ccc(O)cc12,,,42 to 43,Not Active,96,7,Active,Non-Toxic,>1,Non-Toxic,7.56,42 to 43,Non-Toxic,,inactive,IC50 [13]: 99.3 µM; CC50 at 72 h [1]: 53 µM; IC50 (Cytochrome P450 2C9): > 10 µM; MNTC at 72 h [14]: > 100 µM; Drug uptake [15]: Not Active; IC50 (Dihydrofolate reductase): 50 µM; solubility [16]: Soluble; Drug uptake [17]: Not Active; inhibition (Leishmania mexicana [18]): 86%; IC50 (Cytochrome P450 3A4): > 10 µM; Drug uptake [19]: Not Active; half-life [20]: 7.6 min; Drug uptake [21]: Not Active; IC50 (Cytochrome P450 1A2 [22]): 6.1 µM; IC50 (Cytochrome P450 2D6): > 10 µM; MNTC at 72 h [23]: > 100 µM; EC50 [24]: 3.27 µM; EC50 [25]: 5.7 µM; IC50 (Cytochrome P450 2C19): > 10 µM; IC50 [26]: 4.3 µM
O=c1c(O)c(-c2cc(O)c(O)c(O)c2)oc2cc(O)ccc12 [ROBINETIN],100,< 30,< 25,,85,5,,Non-Toxic,,Non-Toxic,18,< 25,Non-Toxic,,inactive,Activity (Leishmania infantum [27]): 10%; inhibition [28]: Active
CCCCCCCCCCCCCCCCOP(=O)([O-])OCC[N+](C)(C)C [MILTEFOSINE],,,,,,,,,,,,,,,,IC50 (Leishmania infantum [29]): 2.65 µM
